For test [1], the target named is Serine/threonine-protein kinase 38 (Homo sapiens) (UniProt Q15208). As to the kind of experiment: Selectivity interaction (ActivX KiNativ screen (ex vivo kinase selectivity in human PBMCs)) EUB0001619a STK38. The test is classed as cell-based. The settings on record: PBMC, at 1 µM.
In test [2] the target is Melatonin receptor type 1A (Homo sapiens) (UniProt P48039). The experiment in a line: Selectivity interaction (Eurofins CEREP Diversity Profile (receptors and ion channels)) EUB0000279b MTNR1A. The following applies: at 10 µM.
Melatonin receptor type 1A (Homo sapiens), sequence (P48039 whole entry): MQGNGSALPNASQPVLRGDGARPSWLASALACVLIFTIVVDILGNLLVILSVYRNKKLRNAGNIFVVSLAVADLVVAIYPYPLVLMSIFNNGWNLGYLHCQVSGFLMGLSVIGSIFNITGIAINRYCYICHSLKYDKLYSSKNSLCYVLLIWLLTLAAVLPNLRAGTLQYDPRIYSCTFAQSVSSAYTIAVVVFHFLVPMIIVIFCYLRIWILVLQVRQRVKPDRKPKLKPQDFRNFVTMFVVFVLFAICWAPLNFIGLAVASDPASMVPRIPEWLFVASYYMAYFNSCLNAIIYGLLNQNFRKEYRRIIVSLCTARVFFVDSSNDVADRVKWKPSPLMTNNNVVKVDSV
Test [3] addresses T1, Cyclin-G-associated kinase (Homo sapiens) (UniProt O14976).
T1 sequence (whole entry): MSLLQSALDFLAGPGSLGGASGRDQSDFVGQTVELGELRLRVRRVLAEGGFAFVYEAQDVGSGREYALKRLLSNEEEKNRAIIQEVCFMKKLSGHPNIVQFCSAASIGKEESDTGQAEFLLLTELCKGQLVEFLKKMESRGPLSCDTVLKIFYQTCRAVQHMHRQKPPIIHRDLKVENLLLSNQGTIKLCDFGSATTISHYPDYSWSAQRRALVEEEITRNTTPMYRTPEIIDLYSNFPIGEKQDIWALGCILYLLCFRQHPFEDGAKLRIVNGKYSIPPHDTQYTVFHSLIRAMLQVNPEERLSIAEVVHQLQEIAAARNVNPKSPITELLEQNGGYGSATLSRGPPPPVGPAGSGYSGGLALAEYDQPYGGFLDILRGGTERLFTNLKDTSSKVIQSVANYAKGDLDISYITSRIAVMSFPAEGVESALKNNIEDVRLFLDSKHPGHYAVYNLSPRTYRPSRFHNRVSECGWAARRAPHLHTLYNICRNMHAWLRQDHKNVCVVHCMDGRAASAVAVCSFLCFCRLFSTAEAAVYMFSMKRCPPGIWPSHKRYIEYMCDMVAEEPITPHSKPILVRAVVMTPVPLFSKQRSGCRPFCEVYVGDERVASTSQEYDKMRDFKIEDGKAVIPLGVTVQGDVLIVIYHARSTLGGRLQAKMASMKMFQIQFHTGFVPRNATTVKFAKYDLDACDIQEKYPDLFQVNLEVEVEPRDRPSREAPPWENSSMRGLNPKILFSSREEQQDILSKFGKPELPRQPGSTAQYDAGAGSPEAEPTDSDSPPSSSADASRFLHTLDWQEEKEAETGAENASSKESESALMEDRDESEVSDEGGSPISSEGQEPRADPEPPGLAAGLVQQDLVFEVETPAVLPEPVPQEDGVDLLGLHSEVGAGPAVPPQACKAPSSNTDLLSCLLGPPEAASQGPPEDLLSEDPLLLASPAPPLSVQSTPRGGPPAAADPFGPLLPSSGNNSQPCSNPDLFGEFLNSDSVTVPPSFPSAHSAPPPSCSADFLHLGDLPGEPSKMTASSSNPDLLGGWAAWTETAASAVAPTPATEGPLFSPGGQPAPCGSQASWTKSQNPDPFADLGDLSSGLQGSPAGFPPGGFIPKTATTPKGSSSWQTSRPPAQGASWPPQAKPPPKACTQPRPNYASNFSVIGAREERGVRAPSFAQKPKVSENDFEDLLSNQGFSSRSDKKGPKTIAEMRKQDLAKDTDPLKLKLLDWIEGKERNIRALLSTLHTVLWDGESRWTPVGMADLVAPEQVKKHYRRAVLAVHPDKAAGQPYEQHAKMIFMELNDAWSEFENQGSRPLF
The experiment in a line: Selectivity interaction (KinomeScan (DiscoverX)) EUB0000695a GAK. The following applies: at 100 nM.

Test [4] concerns the target Homeodomain-interacting protein kinase 3 (Homo sapiens, UniProt Q9H422). As to the kind of experiment: Selectivity interaction (KinomeScan (DiscoverX)) EUB0000607a HIPK3. The settings on record: at 10 µM.
The target of test [5] is T2, Serine/threonine-protein kinase Chk1 (Homo sapiens) (UniProt O14757).
T2 sequence (whole entry): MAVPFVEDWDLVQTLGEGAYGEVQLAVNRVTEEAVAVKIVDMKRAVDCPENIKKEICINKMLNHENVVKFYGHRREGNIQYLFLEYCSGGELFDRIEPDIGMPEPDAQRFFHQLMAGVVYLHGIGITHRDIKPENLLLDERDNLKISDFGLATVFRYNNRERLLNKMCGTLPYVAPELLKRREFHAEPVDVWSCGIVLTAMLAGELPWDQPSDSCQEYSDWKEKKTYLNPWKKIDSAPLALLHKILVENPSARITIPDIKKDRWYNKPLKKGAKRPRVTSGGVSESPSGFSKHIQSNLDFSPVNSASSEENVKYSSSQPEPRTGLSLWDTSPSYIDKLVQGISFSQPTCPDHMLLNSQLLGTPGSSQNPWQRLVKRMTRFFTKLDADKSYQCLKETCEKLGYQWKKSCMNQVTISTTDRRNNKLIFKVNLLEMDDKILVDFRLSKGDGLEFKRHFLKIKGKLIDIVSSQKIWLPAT
As to the kind of experiment: Selectivity interaction (KinomeScan (DiscoverX)) EUB0000607a CHEK1. The following applies: at 10 µM.

In test [6] the target is Tyrosine-protein kinase JAK1 (Homo sapiens, UniProt P23458). The experiment in a line: Selectivity interaction (ActivX KiNativ screen (kinase selectivity in THP-1 cell lysates)) EUB0000639a JAK1. The test is classed as subcellular. The following applies: lysate, at 1 µM.
Tyrosine-protein kinase JAK1, sequence (P23458 whole entry): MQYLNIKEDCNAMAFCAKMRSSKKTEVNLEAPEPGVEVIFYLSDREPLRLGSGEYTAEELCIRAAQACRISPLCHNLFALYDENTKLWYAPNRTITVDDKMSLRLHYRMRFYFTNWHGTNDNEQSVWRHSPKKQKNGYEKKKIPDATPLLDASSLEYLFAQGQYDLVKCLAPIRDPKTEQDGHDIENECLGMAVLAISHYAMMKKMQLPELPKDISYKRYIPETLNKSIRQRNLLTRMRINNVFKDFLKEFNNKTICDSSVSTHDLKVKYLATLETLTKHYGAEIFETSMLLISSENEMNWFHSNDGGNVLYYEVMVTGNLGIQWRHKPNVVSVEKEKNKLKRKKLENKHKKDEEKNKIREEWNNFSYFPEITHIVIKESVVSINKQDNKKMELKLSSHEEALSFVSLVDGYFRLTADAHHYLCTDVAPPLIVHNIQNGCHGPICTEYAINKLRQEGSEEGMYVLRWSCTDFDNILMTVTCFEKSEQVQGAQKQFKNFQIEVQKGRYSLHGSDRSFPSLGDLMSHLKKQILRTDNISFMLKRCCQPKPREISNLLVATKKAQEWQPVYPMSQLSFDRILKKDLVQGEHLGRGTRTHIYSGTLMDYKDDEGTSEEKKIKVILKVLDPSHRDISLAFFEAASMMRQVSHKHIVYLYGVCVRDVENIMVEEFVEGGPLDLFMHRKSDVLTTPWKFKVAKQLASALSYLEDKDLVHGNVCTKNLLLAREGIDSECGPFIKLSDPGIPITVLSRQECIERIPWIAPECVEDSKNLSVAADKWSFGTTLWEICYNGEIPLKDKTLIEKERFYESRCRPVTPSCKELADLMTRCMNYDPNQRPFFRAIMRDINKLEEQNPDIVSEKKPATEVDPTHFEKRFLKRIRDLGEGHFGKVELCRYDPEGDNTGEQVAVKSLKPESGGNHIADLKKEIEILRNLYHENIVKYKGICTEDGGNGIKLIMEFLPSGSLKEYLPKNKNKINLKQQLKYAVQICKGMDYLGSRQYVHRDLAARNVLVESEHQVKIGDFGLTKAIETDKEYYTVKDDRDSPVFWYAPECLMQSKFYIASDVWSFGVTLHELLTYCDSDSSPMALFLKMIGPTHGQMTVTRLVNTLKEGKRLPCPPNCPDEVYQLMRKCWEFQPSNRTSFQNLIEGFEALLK
For test [7], the target named is Serine/threonine-protein kinase 24 (Homo sapiens) (UniProt Q9Y6E0). The experiment in a line: Selectivity interaction (KinomeScan (DiscoverX)) EUB0000045b STK24.
Serine/threonine-protein kinase 24 (Homo sapiens), sequence (Q9Y6E0 whole entry, looked up): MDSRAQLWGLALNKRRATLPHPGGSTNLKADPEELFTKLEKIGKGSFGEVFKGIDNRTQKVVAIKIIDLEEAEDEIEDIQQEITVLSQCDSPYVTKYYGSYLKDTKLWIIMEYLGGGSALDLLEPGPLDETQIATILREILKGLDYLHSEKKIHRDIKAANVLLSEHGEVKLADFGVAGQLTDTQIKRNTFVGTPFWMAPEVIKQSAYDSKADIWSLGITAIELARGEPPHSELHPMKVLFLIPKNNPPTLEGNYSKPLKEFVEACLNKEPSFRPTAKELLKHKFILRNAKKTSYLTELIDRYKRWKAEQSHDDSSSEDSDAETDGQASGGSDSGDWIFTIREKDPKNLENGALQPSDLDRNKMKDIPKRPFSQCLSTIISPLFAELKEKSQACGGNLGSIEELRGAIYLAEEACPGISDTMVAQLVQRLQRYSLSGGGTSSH
Another test deals with Aurora kinase B (Homo sapiens, UniProt Q96GD4). The experiment in a line: Selectivity interaction (Kinase panel (Invitrogen, enzymatic assay)) EUB0000162b AURKB.
Aurora kinase B, sequence (Q96GD4 whole entry): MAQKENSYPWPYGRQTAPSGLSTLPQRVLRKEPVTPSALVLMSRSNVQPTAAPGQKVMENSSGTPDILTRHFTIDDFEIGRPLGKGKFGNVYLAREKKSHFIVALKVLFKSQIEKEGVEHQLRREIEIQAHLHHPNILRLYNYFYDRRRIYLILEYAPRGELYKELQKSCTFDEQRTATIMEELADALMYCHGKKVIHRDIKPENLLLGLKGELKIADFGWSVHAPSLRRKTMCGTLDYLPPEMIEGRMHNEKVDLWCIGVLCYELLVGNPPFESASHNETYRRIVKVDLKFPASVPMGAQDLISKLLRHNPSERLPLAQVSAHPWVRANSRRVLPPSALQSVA
For test [8], the target named is Protein kinase C beta type (Homo sapiens, UniProt P05771). The experiment in a line: Selectivity interaction (ProQinase) EUB0000171b PRKCB. The following applies: at 1 µM.
Protein kinase C beta type, sequence (P05771 2-671 limits assumed): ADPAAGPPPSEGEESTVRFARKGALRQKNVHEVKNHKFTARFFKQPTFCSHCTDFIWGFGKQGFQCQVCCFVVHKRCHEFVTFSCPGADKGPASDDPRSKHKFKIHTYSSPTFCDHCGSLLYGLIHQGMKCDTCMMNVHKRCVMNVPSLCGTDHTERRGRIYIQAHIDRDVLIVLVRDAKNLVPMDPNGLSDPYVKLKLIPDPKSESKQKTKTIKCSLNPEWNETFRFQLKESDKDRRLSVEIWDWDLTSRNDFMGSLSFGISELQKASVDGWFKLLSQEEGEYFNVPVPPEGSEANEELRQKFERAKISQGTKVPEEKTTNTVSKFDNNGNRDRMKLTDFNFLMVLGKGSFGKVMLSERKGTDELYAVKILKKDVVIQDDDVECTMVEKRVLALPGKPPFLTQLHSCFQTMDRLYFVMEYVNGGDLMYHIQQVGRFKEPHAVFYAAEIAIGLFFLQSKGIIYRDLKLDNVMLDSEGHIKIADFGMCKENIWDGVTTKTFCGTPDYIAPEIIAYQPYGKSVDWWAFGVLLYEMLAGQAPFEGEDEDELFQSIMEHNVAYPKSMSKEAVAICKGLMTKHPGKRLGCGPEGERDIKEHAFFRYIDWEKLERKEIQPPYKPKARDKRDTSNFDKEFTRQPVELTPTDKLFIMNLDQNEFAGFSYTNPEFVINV
Test [9] deals with High affinity nerve growth factor receptor (Homo sapiens, UniProt P04629).
High affinity nerve growth factor receptor, sequence (P04629 whole entry): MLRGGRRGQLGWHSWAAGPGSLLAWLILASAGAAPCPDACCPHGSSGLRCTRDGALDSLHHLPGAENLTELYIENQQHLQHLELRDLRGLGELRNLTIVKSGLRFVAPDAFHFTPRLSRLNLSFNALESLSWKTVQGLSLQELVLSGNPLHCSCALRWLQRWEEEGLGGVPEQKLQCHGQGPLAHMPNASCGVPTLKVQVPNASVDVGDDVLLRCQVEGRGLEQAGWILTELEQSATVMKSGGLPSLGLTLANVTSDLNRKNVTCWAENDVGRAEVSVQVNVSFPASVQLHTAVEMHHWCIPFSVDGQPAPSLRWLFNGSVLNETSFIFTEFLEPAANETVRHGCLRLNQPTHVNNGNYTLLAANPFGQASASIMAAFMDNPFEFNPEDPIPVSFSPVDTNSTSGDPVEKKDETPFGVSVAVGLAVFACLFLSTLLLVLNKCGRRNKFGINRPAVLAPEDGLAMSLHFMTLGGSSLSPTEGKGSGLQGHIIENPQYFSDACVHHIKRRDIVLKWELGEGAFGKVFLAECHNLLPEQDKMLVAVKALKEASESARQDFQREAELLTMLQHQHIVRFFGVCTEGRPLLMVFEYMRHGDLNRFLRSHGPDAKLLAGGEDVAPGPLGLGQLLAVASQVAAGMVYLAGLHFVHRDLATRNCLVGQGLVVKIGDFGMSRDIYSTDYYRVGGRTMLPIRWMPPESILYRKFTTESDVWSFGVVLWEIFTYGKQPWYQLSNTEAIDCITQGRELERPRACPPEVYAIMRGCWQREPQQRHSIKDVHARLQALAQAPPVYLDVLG
Test [10] concerns the target Serine/threonine-protein kinase NLK (Homo sapiens, UniProt Q9UBE8). The experiment in a line: Selectivity interaction (Competition-binding assay (DiscoverX)) EUB0000229b NLK.

The values below come from ChEMBL document CHEMBL5465560, “Selectivity Literature for EUbOPEN Chemogenomic Library” (2024).

Bounds are passed on as bounds.

Serine/threonine-protein kinase NLK, sequence (Q9UBE8 whole entry): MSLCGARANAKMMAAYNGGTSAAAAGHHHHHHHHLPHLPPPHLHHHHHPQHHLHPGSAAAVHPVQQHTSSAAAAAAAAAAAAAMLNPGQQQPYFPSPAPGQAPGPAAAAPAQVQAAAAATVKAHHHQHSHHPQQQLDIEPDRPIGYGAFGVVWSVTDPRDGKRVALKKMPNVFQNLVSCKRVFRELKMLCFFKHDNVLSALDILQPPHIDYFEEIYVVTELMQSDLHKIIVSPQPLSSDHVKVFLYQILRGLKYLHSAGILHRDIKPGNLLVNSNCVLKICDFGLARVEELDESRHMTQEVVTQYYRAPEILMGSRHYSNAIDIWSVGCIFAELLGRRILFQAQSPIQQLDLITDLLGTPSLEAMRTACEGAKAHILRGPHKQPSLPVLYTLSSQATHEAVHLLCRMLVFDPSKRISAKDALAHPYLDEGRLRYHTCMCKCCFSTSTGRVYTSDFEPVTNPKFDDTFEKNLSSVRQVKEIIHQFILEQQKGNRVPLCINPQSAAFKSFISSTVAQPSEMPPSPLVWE
Serine/threonine-protein kinase 38 (Homo sapiens), sequence (Q15208 2-465 limits assumed): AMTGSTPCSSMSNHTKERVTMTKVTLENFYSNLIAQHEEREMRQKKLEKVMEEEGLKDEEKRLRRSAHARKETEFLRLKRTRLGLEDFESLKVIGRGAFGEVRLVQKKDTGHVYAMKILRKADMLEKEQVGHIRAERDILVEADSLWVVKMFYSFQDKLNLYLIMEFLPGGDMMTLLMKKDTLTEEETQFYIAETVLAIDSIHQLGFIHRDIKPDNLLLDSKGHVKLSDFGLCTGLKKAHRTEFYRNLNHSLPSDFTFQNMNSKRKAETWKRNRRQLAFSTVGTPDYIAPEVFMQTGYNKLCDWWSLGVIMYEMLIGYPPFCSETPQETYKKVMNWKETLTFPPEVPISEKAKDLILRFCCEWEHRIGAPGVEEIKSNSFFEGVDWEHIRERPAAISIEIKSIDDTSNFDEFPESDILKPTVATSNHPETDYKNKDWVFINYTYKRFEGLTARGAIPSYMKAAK

Turning to `N#Cc1cccc(-c2c[nH]c3ncnc(N4CCOCC4)c23)c1`, the % of inhibition in test [1] was 2%.

For the compound `CC(=O)c1cc(-c2ccccc2OCC2CC2)c2ncccn12`, the % of control in test [2] turned out to be 46%.

The compound `Cc1cc(F)c(C(=O)Nc2cccc(-c3nncn3C(C)C)n2)cc1-n1cnc(C2CC2)c1` came in with a % of control in test [3] of 88%.

On to `CNC(=O)Nc1ccc(-c2nc(N3CC4CCC(C3)O4)c3cnn(C4CCC5(CC4)OCCO5)c3n2)cc1`, for which the figures for the % of control in [4] and in test [5] were 42% and 100%, respectively.

For the compound `CC[C@@H]1[C@H](F)C(=O)N[C@@H]1COc1nccc2cc(C(N)=O)c(OC)cc12` [ZIMLOVISERTIB], in [6], the % of inhibition was determined as 3.8%.

Turning to `C=CC(=O)Nc1cc(-n2c(=O)ccc3cnc4ccc(-c5ccc(NS(C)(=O)=O)cc5)cc4c32)ccc1C`, the % of control in test [7] (at 1 µM) was 100%; in test [7] (at 10 µM), 93%.

What is called IC50 is the concentration needed to halve the response being measured. The low end stands for higher potency, the high end for lower potency. On to `CN(C)C(=O)Cn1cc(-c2ccc(-c3cncc4ccccc34)cc2)cn1`, for which, on Aurora kinase B, the midpoint of inhibition, the IC50, lay at 0.809 µM.

In the case of `C=CC(=O)Nc1cccc(C(=O)Nc2ccc(Nc3cc(-c4[nH]c(SC)nc4C)ccn3)cc2)c1`, the % of control in test [8] came out at 103%.

Regarding `CCc1cccc(CC)c1NC(=O)c1nn(C)c2c1CCc1cnc(Nc3ccc(C(=O)NC4CCN(C)CC4)cc3OC(F)(F)F)nc1-2`, the IC50 in test [9] is > 10 µM.

The term Kd denotes the free concentration of one partner at which half of the binding sites on the other are occupied at equilibrium, for simple one-to-one binding. In test [10], `COc1cc(N(C)c2ccnc3ccc(C(F)(F)F)cc23)cc(OC)c1OC` had an equilibrium dissociation constant (Kd) of 6.5 µM.
